Results as given in ChEMBL document CHEMBL2073778, “Identification of lactate as a driving force for prostanoid transport by prostaglandin transporter PGT” (Am J Physiol Renal Physiol, 2002).

Molecular target: Solute carrier organic anion transporter family member 2A1 (Homo sapiens, UniProt Q92959)
Assay: TP_TRANSPORTER: inhibition of PGE2 uptake in PGT-expressing HeLa cells
Assay type: functional, cell-based

**Q.** `CC(=O)C(=O)O` [PYRUVATE] was tested. Which Ki did it give?
**A.** 26 mM

**Q.** With `O=C[C@H](O)COP(=O)(O)O` as the molecule, how does the Ki read?
**A.** 15 mM

**Q.** How did the Ki turn out when `O=C(OP(=O)(O)O)C(O)COP(=O)(O)O` (configuration not stated) was run?
**A.** 57 mM

**Q.** For `C[C@@H](O)C(=O)O` [D-LACTIC ACID], which Ki is on record?
**A.** 48 mM

**Q.** How did the Ki turn out when `C=C(OP(=O)(O)O)C(=O)O` [PHOSPHOENOLPYRUVATE] was run?
**A.** 13 mM

**Q.** With `O=P(O)(O)OC[C@H]1O[C@@](O)(COP(=O)(O)O)[C@@H](O)[C@@H]1O` [FRUCTOSE 1,6-DIPHOSPHATE] as the molecule, how does the Ki read?
**A.** 51 mM

**Q.** How did the Ki turn out when `O=P(O)(O)OC[C@H]1O[C@@H](O)[C@H](O)[C@@H](O)[C@@H]1O` was run?
**A.** 31 mM
